≈ marks a conversion by molar mass, not a printed value. Where “and” joins values, the source holds several entries; their conditions need not be identical. Equal values may be shown once. Read-outs that look alike come from different tables or passages of the source.
How the values were obtained:
[1] = tested on: GFP-expressing Mtb H37Rv in RAW264.7 macrophages; experiment: Intramacrophage assay (MIC for Mtb in macrophages); type: cell-based, Mycobacterium tuberculosis
[2] = type: in vitro ADME
Mtb H37Rv [3] = experiment: microbe, parasite or virus in culture; type: cell-based, Mycobacterium tuberculosis; conditions: read-out: MIC for Mtb in liquid culture
M. bovis BCG Pasteur = experiment: microbe, parasite or virus in culture; type: cell-based, Mycobacterium bovis; conditions: for MIC: read-out: MIC in Pasteur M. bovis BCG
physchem [4] = conditions: pH 7.4
in vivo = conditions: male, Swiss, mouse, po; for AUC: 30 mg/kg, oral 30 mg/kg
Mtb ribosome = type: biochemical, Mycobacterium tuberculosis
physchem [5] = type: physicochemical
[6] = pH 2, 50% acetonitrile/water
physchem [7] = experiment: physchem
in vitro = in vitro ADME; conditions: human, Caco-2; read-out: Permeability in Caco2 cells (Papp)
[8] = type: in vitro ADME; remark: listed apart in the source
RAW264.7 cells = type: in vitro ADME, murine; conditions: versus neutral analog SEQ-416
Description: RAW264.7 cells were allowed to adhere in 96 wells plates for 4 hours before compounds were added at 10 μM. Intracellular concentrations were measured by LC-MS/MS after cellular lysis. For each point, up to 4 hours, the Intra/Extra cellular ratio was calculated. Points are the mean ± SD of four tests. Clarithromycin and Azithromycin were used as references.

[9] = type: in vitro ADME, human
Description: The metabolic stability of test compounds was determined as described.[57]^,[58] Incubation and experimental conditions with human hepatic microsomal fractions (purchased from BD Gentest as a pooled batch from 6 donors) were as follows: microsomal proteins, 1 mg/mL; bovine serum albumin, 1 mg/mL; substrate, 5 μM; incubation duration, 20 min; cytochrome P-450 monooxygenases (CYPs) and flavin containing monooxygenases (FMOs) cofactor, 1 mM NADPH. Enzyme activity was stopped with 1 volume of acetonitrile. […] For each test compound and for each microsomal preparation, three incubations were prepared: absolute reference in buffer (without enzyme material, i.e., microsomes); incubation without NADPH cofactor (with microsomal fractions); and incubation with NADPH (with microsomal fractions). For most compounds, biotransformation, as observed in hepatic microsomal fractions in the presence of the NADPH cofactor, consists of oxidative reactions catalyzed by either CYPs or FMOs. In these conditions, the percentage of total metabolism, which corresponds to oxidative metabolism, was determined as follows: [% total metabolism] ≈ [% oxidative metabolism] = [unchanged compound (UC) peak area − NADPH UC peak area + NADPH] × 100%, where NADPH corresponds to the enzyme cofactor for oxidation reactions catalyzed by either CYP or FMO.

Mtb methylated ribosome = experiment: Mtb in vitro translation assay with methylated (erythromycin-treated) ribosome; type: biochemical, Mycobacterium tuberculosis
[10] = type: in vitro ADME; remark: listed apart in the source
CYP3A4 = target: T1, CYP3A4 (Homo sapiens, UniProt P08684); experiment: CYP3A4 reversible inhibition in human liver microsomes; type: in vitro ADME
T1 construct: human liver microsomes (purchased from BD Gentest as a pooled batch from 150 donors); tissue BD Gentest Cat#452117; host or cells: pooled human liver microsomes (150 donors)
T1 sequence (P08684 whole entry): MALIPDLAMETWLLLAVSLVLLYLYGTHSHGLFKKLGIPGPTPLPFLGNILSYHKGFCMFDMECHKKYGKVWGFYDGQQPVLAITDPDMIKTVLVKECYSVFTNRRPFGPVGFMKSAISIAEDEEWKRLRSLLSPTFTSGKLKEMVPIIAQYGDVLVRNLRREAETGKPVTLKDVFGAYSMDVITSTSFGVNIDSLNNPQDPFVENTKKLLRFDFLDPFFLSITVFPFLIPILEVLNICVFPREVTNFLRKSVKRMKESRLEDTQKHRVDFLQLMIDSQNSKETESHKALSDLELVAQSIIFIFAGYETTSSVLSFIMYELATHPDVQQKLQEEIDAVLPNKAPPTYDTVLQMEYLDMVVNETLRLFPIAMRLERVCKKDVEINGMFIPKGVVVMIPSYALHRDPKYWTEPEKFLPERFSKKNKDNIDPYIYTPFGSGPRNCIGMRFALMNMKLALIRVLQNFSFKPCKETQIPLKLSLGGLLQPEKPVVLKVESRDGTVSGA
Description: Incubations were performed with 0.1 mg/mL human liver microsomes (purchased from BD Gentest as a pooled batch from 150 donors) in a final incubation volume of 0.25 mL. The incubation medium contained 0.05 M phosphate buffer (pH 7.4) containing an NADPH regenerating system (including 1.3 mM NADP, 3.3 mM glucose 6-phosphate,3.3 mM MgCl2, and 1.0 U/mL glucose 6-phosphate dehydrogenase). Probe CYP3A4 substrates (midazolam at 3 μM and testosterone at 50 μM), were incubated for 10 and 30 min, respectively, with increasing concentrations of GM, MGM or CGM (concentration range: 1 - 30 μM). The reaction was stopped by adding acetonitrile to precipitate the proteins. The incubation mixtures were then centrifuged for 5 min at 10,000 × g, and an aliquot of the supernatant was analyzed using high-performance liquid chromatography coupled to mass spectrometry for the assessment of 1’-hydroxymidazolam and 6β-hydroxytestosterone metabolite formation.

erm37 mRNA = type: cell-based, Mycobacterium tuberculosis; conditions: inducer at 0.25µg/ml overnight, normalized to 23S
Mtb H37Rv [11] = experiment: MIC80 after overnight pre-incubation of Mtb with subinhibitory macrolide; type: cell-based; conditions: Mycobacterium tuberculosis, read-out: MIC80
[12] = Mycobacterium tuberculosis variant bovis BCG, BCG

## CON=C1C[C@@H](C)O[C@@H](O[C@@H]2[C@@H](C)[C@H](O[C@H]3C[C@@H](C)N(C)C[C@H](C)O3)[C@@H](C)C(=O)O[C@H](C(C)CO[C@@H]3O[C@H](C)[C@@H](O)[C@@H](OC)[C@H]3OC)[C@H](C)[C@@H](OC(=O)CC(C)C)[C@@H](C)C(=O)[C@@](C)(OC(=O)NCc3ccccc3)C[C@@H]2C)[C@@H]1O (stereo partly drawn) [SEQ-372, (2R,3S,4R,5R,7S,9S,10S,11R,12S,13R)-7-[(benzylcarbamoyl)oxy]-2-(1-{[(2R,3R,4R,5R,6R)-5-hydroxy-3,4-dimethoxy-6-methyltetrahydro-2H-pyran-2-yl]oxy}propan-2-yl)-10-{[(2S,3R,6R)-3-hydroxy-4-(methoxyimino)-6-methyltetrahydro-2H-pyran-2-yl]oxy}-3,5,7,9,11,13-hexamethyl-6,14-dioxo-12-{[(2S,5R,7R)-2,4,5-trimethyl-1,4-oxazepan-7-yl]oxy}oxacyclotetradecan-4-yl 3-methylbutanoate]
[1]; Mycobacterium tuberculosis, H37RV, read-out: MIC for Mtb tuberculosis in macrophages
  MIC: 0.06 µM (≈ 0.0673 µg/mL)
[1]; versus SEQ-416
  Increased potency against Mtb in the macrophage compared with SEQ-416: approximately 10 fold
[2]
  Metabolic stability in rat liver microsomes (% metabolized compound after 20 min): 22%
Mtb H37Rv [3]; Mycobacterium tuberculosis, H37RV
  MIC: 0.54 µM (≈ 0.606 µg/mL)
M. bovis BCG Pasteur
  Growth inhibition (MIC80): 0.29 µM and 0.25 µM and 0.34 µM
M. bovis BCG Pasteur; Mycobacterium tuberculosis variant bovis BCG, BCG, read-out: Growth inhibition (MIC80)
  MIC80: 0.28 µM (≈ 0.314 µg/mL)
M. bovis BCG Pasteur; [12]
  MIC: 0.28 µM (≈ 0.314 µg/mL)
Physchem [4]
  logD: 4.93
In vivo
  bioavailability: 17%
In vivo; AUC in lung @30 mg/kg, lung
  AUC: 18000 ng·h/mL
In vivo; AUC in plasma @30 mg/kg, plasma
  AUC: 900 ng·h/mL
Mtb ribosome; read-out: Inhibition of Mtb translation (IC50 μM)
  IC50: 0.039 µM
Physchem [5]; MCT pH 7.4, read-out: Solubility: MCT@pH 7.4
  solubility: 1420 µg/mL (≈ 1270 µM)
Physchem [5]; aqueous buffer, PBS pH 7.4, read-out: Solubility: PBS@pH 7.4
  solubility: 58.8 µg/mL (≈ 52.4 µM)
[6]
  Chemical stability: t/12@pH 2: ∼25 h
Physchem [7]
  pKa: 8.2
In vitro
  Papp: 2.2 ×10⁻⁶ cm/s
[8]
  Metabolic stability in mouse liver microsomes (% metabolized compound after 20 min): 8%
RAW264.7 cells
  Increase in macrophage accumulation compared with SEQ-416: 20 fold
[9]; 20 min incubation
  Metabolic stability in human liver microsomes (% metabolized compound after 20 min): 33%
[9]; in presence of ketoconazole CYP3A inhibitor (K)
  Metabolic stability in human liver microsomes (% metabolized compound after 20 min), (K): 19(K) %
[9]; in presence of quinidine CYP2D6 inhibitor (Q)
  Metabolic stability in human liver microsomes (% metabolized compound after 20 min), (Q): /32 (Q) %
Mtb methylated ribosome; read-out: Translation inhibition of Mtb methylated ribosome (IC50 μM)
  IC50: 0.054 µM
[10]
  Metabolic degradation/clearance from human liver microsomes: 0.006 mL/h/10^6 hepatocytes
CYP3A4; human, pH 7.4
  Cytochrome 3A4 inhibition (in words): inhibited cytochrome 3A4
CYP3A4; midazolam, read-out: CYP3A4 inhibition, IC50 with midazolam as substrate
  IC50: 1200 nM
CYP3A4; testosterone, read-out: CYP3A4 inhibition, IC50 with testosterone as substrate (T)
  IC50: 3800 nM

## CC[C@H]1OC(=O)[C@H](C)[C@@H](O[C@H]2C[C@@](C)(OC)[C@@H](O)[C@H](C)O2)[C@H](C)[C@@H](O[C@@H]2O[C@H](C)C[C@H](N(C)C)[C@H]2O)[C@](C)(OC)C[C@@H](C)C(=O)[C@H](C)[C@@H](O)[C@]1(C)O [Clarithromycin]
Mtb H37Rv [3]; listed as clarithromycin
  MIC: 8 µM (≈ 5.98 µg/mL)
Mtb H37Rv [3]
  MIC: 2 µM (≈ 1.5 µg/mL)
M. bovis BCG Pasteur; [12]
  MIC: 0.1 µM (≈ 0.0748 µg/mL)
erm37 mRNA
  erm37 mRNA fold change: 57 fold change
Mtb ribosome; non-methylated ribosome, read-out: IC50 ribosome
  IC50: 0.354 µM
Mtb H37Rv [11]; Without induction
  MIC80: 2 µM (≈ 1.5 µg/mL)
Mtb H37Rv [11]; overnight pre-incubation with SEQ-9 0.125µg/ml
  MIC80: 4 µM (≈ 2.99 µg/mL)
Mtb H37Rv [11]; overnight pre-incubation with SEQ-9 0.25µg/ml
  MIC80: 8 µM (≈ 5.98 µg/mL)
Mtb H37Rv [11]; overnight pre-incubation with clarithromycin 0.125µg/ml
  MIC80: 8 µM (≈ 5.98 µg/mL)
Mtb H37Rv [11]; overnight pre-incubation with clarithromycin 0.25µg/ml
  MIC80: 8 µM (≈ 5.98 µg/mL)
Mtb methylated ribosome; methylated ribosome, read-out: IC50 methylated ribosome
  IC50: 88.1 µM

From article PMC9994261 (Cell, 2023)
